Assay results published in US8415469B2, “Compounds and methods for kinase modulation, and indications therefor” (Plexxikon Inc., priority 2005, dated 2013).

What was measured:
Assay type in all cases: biochemical
Fms = target: T1, Fms (Homo sapiens, UniProt P07333); test: AlphaScreen kinase assay, Fms; details: read-out: IC50, activity toward kinase Fms
T1 construct: purchased Upstate Biotechnology

Ret = target: T2, Ret (Homo sapiens, UniProt P07949); test: AlphaScreen kinase assay, Ret; details: read-out: IC50, activity toward kinase Ret
T2 construct: P1378.pET-SF BI-PTP RET H661-R1012 HIS; made in house
T2 sequence (P07949 with tags, fused parts or gaps): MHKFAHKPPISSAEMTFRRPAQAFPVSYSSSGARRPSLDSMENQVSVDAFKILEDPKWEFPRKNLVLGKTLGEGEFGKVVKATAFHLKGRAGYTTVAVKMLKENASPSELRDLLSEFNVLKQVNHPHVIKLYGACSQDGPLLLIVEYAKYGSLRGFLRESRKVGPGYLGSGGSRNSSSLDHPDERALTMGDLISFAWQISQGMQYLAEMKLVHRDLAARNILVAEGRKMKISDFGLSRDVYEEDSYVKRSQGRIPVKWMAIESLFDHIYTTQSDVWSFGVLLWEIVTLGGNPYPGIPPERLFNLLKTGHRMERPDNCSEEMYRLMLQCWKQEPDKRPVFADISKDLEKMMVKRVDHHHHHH

Jnk1 = target: T3, Jnk1 (Homo sapiens, UniProt P45983); test: AlphaScreen kinase assay, Jnk1; details: read-out: IC50, activity toward kinase Jnk1
T3 construct: purchased Upstate Biotechnology
Experimental: (§4) AlphaScreen assays were done using compounds dissolved in DMSO to a concentration of 20 mM. The compounds were diluted accordingly to the desired final concentrations in each sample well, using 1:3 serial dilution for a total of 8 concentration points. Plates were prepared such that each kinase reaction is 20 μl in 1× kinase buffer, 5% DMSO and 10 μM ATP. After incubation of the kinase reaction for 1 hour at room temperature, 5 μl of donor beads in stop buffer (50 mM EDTA in 1× kinase buffer) was added, the sample was mixed and incubated for 20 minutes at room temperature before adding 5 μl of acceptor beads in stop buffer. The samples were incubated for 60 minutes at room temperature and the signal per well was read on AlphaQuest reader.

B-Raf V600E = target: T4, B-Raf V600E (Homo sapiens, UniProt P15056, V600E); test: AlphaScreen kinase assay, B-Raf V600E; details: read-out: IC50, activity toward kinase B-Raf V600E
T4 construct: P4254. pFastBacBD-CDC37 BRAF D437-K722-X, V600E; His6 with pFastBac HT leader (TEV site) (N); made in house; host or cells: Sf9 (baculovirus; chaperone CDC37 co-expressed)
T4 sequence (P15056 with tags, fused parts or gaps V600E): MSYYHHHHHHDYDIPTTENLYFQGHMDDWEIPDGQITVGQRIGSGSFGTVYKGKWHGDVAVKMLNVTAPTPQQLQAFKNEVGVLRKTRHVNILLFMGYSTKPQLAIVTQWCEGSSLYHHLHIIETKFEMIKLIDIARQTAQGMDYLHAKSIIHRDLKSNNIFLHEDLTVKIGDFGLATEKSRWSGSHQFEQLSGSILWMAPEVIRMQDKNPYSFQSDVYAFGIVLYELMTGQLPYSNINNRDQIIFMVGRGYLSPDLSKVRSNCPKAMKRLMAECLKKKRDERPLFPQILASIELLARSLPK

Met = target: T5, Met (Homo sapiens, UniProt P08581); test: AlphaScreen kinase assay, Met; details: read-out: IC50, activity toward kinase Met
T5 construct: P1818.pETN6 BI-PTP MET G1056-G1364-X WT; His6 (N); made in house; host or cells: E. coli (PTP1B co-expressed)
T5 sequence (P08581 with tags, fused parts or gaps): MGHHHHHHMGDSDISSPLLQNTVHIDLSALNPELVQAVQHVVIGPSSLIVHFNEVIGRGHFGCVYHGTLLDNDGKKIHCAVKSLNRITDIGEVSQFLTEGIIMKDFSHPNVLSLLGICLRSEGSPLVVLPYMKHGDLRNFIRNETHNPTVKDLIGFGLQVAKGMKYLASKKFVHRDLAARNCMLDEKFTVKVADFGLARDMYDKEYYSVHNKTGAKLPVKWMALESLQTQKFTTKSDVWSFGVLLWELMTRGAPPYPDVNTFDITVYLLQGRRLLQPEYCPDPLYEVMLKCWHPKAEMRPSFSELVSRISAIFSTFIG
Summary of the method: (§1)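 Biotinylated peptide substrate is phosphorylated by kinase; anti-phosphopeptide antibody on acceptor beads and streptavidin donor beads bring emission when substrate is phosphorylated. Inhibition lowers acceptor signal. Compounds from 20 mM DMSO stock tested as 8-point 1:3 serial dilutions.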

Zap70 = target: T6, Zap70 (Homo sapiens, UniProt P43403); test: AlphaScreen kinase assay, Zap70; details: read-out: IC50, activity toward kinase Zap70
T6 construct: P1868.pFastBac1 ZAP70 D327-G606 HIS, WT; His7 (HHHHHHH) (C); made in house
T6 sequence (P43403 with tags, fused parts or gaps): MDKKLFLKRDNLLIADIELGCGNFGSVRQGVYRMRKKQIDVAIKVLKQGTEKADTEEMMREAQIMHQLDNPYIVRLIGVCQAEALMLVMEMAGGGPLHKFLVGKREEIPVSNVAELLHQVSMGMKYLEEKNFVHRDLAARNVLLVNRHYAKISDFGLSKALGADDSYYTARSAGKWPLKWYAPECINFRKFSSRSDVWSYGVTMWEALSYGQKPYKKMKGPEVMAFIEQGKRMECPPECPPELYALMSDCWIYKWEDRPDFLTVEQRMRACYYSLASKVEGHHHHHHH
Summary of the method: as §1

Jnk2 = target: T7, Jnk2 (Homo sapiens, UniProt P45984); test: AlphaScreen kinase assay, Jnk2; details: read-out: IC50, activity toward kinase Jnk2
T7 construct: purchased Roche Protein Expression Group (Indianapolis, IN)
Summary of the method: as §1

TEC = target: T8, TEC (Homo sapiens, UniProt P42680); test: AlphaScreen kinase assay, TEC; details: read-out: IC50, activity toward kinase TEC
T8 sequence (P42680 1-631): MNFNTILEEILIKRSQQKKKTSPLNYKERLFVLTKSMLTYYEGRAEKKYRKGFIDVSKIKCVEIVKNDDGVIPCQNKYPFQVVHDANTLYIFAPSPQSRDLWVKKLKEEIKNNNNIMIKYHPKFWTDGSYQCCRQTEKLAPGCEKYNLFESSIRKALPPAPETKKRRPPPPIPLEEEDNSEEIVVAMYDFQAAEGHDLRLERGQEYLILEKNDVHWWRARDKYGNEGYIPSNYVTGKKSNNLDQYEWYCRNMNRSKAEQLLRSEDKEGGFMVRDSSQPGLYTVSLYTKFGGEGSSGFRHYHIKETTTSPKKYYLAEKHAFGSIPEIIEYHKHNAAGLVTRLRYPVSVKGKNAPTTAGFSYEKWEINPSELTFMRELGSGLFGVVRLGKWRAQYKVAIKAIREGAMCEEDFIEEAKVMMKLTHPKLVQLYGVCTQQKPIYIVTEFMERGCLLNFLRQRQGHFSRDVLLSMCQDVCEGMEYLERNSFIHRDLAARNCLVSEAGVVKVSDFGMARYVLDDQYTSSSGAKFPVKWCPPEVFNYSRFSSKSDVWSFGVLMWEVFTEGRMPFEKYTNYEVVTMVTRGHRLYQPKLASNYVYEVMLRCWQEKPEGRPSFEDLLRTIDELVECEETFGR
Source text: (§2) AlphaScreen assay was used to screen additional kinases. The assay is similarly dependent on the phosphorylation of a peptide substrate. In this assay, an antibody that recognizes phosphorylated substrate is bound to an acceptor bead. The peptide substrate is attached to biotin, which binds to a donor head that contains streptavidin. Thus phosphorylated substrate is bound by antibody and streptavidin, bringing the donor and acceptor heads into close proximity when kinase is not inhibited. The donor produces singlet oxygen which results in emission from the acceptor when they are in close proximity. Conversely, when kinase is inhibited, the donor and acceptor beads are not associated and the emission from the acceptor is reduced.
(§3) AlphaScreen assays were done using compounds dissolved in DMSO to a concentration of 20 mM. The compounds were diluted accordingly to the desired final concentrations in each sample well, using 1:3 serial dilution for a total of 8 concentration points.

Jnk3 = target: T9, Jnk3 (Homo sapiens, UniProt P53779); test: AlphaScreen kinase assay, Jnk3; details: read-out: IC50, activity toward kinase Jnk3
T9 construct: purchased Upstate Biotechnology

B-Raf = target: T10, B-Raf (Homo sapiens, UniProt P15056); test: AlphaScreen kinase assay, B-Raf; details: read-out: IC50, activity toward kinase B-Raf
T10 construct: purchased Upstate Biotechnology
T10 sequence (P15056 whole entry): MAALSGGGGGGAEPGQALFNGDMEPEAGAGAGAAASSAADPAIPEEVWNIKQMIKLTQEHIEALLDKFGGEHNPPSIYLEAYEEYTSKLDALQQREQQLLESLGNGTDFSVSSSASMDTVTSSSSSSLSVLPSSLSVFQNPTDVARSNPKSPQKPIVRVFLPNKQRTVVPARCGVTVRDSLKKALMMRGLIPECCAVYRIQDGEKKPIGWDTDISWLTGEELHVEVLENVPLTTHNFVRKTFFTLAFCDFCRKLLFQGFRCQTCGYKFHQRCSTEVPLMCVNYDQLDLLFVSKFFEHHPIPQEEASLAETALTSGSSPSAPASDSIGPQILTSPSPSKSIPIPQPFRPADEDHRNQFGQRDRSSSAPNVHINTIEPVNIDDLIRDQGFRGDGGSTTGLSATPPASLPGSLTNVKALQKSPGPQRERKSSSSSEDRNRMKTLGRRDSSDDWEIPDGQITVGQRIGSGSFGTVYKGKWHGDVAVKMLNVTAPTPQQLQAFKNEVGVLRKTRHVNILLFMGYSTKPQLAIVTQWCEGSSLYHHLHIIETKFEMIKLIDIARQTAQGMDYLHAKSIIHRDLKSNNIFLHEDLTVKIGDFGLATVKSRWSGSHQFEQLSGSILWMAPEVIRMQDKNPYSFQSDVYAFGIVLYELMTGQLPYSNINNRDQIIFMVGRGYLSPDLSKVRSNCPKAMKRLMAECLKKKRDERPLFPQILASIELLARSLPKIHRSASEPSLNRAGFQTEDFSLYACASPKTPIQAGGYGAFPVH

c-Raf-1 = target: T11, c-Raf-1 (Homo sapiens, UniProt P04049); test: AlphaScreen kinase assay, c-Raf-1; details: read-out: IC50, activity toward kinase c-Raf-1
T11 construct: purchased Upstate Biotechnology
T11 sequence (P04049 whole entry): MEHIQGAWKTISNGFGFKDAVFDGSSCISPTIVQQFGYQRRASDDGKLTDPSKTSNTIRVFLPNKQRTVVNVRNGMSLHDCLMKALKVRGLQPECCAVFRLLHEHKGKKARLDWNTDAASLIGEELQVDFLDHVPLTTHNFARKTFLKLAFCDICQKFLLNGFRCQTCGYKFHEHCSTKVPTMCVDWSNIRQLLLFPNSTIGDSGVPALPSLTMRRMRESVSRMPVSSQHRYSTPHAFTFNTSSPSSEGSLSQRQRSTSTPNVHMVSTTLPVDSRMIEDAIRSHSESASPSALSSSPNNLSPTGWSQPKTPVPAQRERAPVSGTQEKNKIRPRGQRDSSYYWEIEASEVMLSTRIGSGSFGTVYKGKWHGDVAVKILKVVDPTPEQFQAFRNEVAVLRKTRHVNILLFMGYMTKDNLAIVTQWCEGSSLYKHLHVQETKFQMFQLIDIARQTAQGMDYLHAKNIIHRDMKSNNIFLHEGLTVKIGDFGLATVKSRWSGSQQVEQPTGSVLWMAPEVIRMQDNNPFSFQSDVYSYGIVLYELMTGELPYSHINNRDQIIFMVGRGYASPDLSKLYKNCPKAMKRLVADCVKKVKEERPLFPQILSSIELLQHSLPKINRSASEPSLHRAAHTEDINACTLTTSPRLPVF

Btk = target: T12, Btk (Homo sapiens, UniProt Q06187); test: Z'-Lyte FRET kinase assay (Invitrogen), Btk; details: read-out: IC50, activity toward kinase Btk
T12 construct: purchased Invitrogen (assay run by Invitrogen)

FGFR1 = target: T13, FGFR1 (Homo sapiens, UniProt P11362, C488A/C584S); test: AlphaScreen kinase assay, FGFR1; details: read-out: IC50, activity toward kinase FGFR
T13 construct: P1351.pET N6 BI-PTP FGFR A458-E765-X C488A, C584S; made in house; host or cells: E. coli (PTP1B co-expressed)
T13 sequence (P11362 458-765 C488A/C584S): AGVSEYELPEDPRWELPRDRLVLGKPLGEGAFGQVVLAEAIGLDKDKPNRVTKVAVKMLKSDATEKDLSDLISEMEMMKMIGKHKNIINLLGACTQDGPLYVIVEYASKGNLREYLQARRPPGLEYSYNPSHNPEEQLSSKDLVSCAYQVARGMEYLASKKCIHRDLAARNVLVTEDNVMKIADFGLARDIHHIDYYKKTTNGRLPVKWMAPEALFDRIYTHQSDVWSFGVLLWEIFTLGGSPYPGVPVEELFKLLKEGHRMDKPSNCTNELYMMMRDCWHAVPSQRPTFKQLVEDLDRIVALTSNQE

Csk = Csk (Homo sapiens, UniProt P41240); test: AlphaScreen kinase assay, Csk; details: read-out: IC50, activity toward kinase Csk
Source text: as §2, §3

Src = target: T14, Src (Homo sapiens, UniProt P12931); test: AlphaScreen kinase assay, Src; details: read-out: IC50, activity toward kinase Src
T14 construct: P1144. pET-N6 BI-PTP SRC V86-L536-X; made in house
T14 sequence (P12931 with tags, fused parts or gaps): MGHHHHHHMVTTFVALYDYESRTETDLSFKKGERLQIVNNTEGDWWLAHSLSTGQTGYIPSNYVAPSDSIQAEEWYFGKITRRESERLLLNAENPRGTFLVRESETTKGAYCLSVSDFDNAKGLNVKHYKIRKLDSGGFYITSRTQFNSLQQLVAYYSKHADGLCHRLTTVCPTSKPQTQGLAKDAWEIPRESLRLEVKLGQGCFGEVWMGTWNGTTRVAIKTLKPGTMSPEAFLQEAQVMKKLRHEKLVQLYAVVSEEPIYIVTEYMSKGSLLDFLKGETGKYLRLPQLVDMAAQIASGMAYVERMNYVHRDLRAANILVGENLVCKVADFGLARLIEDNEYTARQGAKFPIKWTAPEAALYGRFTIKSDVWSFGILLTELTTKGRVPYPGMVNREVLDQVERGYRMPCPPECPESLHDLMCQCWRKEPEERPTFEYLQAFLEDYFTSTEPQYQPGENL
Experimental: as §4

Flt1 = target: T15, Flt1 (Homo sapiens, UniProt P17948); test: AlphaScreen kinase assay, Flt1; details: read-out: IC50, activity toward kinase Flt1
T15 construct: P1826.pETN6 BI-PTP FLT1 M799-D1165-X WT; His6 (N); made in house; host or cells: E. coli (PTP1B co-expressed)
T15 sequence (P17948 with tags, fused parts or gaps): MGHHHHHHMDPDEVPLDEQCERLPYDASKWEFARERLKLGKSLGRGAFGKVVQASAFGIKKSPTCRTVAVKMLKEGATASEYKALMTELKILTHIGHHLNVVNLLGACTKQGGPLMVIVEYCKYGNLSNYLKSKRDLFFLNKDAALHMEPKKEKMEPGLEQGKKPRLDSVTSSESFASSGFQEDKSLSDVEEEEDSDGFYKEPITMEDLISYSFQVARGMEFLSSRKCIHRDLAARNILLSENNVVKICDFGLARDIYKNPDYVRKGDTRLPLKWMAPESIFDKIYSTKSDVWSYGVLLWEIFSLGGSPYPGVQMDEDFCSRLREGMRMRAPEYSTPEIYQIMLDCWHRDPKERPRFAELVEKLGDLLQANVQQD

Frk = Frk (Homo sapiens, UniProt P42685); test: AlphaScreen kinase assay, Frk; details: read-out: IC50, activity toward kinase Frk
Source text: as §2, §3

Brk = Brk (Homo sapiens, UniProt Q13882); test: AlphaScreen kinase assay, Brk; details: read-out: IC50, activity toward kinase Brk
Source text: as §2, §3

Plk1 = Plk1 (Homo sapiens, UniProt P53350); test: AlphaScreen kinase assay, Plk1; details: read-out: IC50, activity toward kinase Plk1
Source text: as §2, §3

MAP4K4 = MAP4K4 (Homo sapiens, UniProt O95819); test: AlphaScreen kinase assay, MAP4K4; details: read-out: IC50, activity toward kinase MAP4K4
MAP4K4, sequence (O95819 whole entry): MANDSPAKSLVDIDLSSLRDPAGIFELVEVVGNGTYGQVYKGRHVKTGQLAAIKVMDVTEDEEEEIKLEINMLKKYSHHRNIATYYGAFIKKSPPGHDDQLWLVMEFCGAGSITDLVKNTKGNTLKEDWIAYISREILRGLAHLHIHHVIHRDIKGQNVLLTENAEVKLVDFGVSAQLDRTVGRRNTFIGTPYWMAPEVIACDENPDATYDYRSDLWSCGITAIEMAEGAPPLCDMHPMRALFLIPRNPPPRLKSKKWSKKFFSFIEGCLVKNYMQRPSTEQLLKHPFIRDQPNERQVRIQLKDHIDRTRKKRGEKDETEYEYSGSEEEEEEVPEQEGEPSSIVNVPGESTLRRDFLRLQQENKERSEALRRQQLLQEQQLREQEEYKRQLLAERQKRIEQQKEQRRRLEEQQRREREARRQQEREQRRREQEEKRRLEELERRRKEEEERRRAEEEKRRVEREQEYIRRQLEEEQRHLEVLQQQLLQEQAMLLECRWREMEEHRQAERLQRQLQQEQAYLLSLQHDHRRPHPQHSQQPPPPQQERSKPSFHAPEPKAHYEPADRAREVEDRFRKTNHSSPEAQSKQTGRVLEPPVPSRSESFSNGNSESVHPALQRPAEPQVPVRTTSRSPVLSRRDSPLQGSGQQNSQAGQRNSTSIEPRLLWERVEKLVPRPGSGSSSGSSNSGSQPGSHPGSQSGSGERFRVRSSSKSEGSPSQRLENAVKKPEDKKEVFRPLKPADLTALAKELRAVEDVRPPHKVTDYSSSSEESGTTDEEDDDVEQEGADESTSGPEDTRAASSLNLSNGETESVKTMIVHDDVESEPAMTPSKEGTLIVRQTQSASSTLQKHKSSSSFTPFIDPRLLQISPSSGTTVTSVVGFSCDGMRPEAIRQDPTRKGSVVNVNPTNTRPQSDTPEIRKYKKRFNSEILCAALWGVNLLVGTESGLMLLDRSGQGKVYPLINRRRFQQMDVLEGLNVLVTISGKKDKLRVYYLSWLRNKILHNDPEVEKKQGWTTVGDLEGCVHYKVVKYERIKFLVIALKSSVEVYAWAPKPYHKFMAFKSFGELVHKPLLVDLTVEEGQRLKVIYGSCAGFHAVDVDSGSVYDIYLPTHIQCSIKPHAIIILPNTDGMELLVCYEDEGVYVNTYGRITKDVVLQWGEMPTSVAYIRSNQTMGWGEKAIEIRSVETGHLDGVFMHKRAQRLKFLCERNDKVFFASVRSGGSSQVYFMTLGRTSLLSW

Kit = target: T16, Kit (Homo sapiens, UniProt P10721); test: AlphaScreen kinase assay, Kit; details: read-out: IC50, activity toward kinase Kit
T16 construct: P1332.N6 BI PTP KIT M552-K948-X COD; His6 (N); made in house; host or cells: E. coli (PTP1B co-expressed)

Gsk3β = Gsk3β (Homo sapiens, UniProt P49841); test: AlphaScreen kinase assay, Gsk3β; details: read-out: IC50, activity toward kinase Gsk3β
Summary of the method: as §1

Measured: IC50

T1 sequence (P07333 20-972): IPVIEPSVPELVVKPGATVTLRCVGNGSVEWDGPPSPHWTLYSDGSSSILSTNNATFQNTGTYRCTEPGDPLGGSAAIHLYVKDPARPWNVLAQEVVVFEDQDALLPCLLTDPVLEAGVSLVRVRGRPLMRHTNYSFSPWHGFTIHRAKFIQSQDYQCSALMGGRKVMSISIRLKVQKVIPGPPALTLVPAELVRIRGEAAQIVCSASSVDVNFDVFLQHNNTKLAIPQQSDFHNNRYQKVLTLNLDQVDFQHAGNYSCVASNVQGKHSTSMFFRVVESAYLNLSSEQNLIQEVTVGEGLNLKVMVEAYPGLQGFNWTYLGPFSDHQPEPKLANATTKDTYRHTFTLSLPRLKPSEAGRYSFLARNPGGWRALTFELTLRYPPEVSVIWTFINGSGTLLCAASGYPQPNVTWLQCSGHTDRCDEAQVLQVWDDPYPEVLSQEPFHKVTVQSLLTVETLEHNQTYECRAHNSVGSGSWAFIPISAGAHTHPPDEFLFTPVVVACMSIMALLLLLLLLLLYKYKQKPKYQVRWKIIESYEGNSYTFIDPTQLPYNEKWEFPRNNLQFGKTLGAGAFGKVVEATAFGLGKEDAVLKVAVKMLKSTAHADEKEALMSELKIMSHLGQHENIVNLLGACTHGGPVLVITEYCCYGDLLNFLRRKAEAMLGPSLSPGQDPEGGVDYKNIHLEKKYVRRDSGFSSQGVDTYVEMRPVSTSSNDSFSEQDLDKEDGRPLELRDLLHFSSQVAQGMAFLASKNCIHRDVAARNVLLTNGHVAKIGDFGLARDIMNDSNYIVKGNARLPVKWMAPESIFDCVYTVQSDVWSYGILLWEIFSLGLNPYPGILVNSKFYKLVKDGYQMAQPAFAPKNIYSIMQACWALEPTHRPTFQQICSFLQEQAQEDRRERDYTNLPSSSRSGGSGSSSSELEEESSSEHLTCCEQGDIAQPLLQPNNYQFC

CS(=O)(=O)Nc1ccc(F)c(C(=O)c2c[nH]c3ncc(-c4cccc(C(N)=O)c4)cc23)c1 [Compound P-0228, 3-[3-(2-Fluoro-5-methanesulfonylamino-benzoyl)-1H-pyrrolo[2,3-b]pyridin-5-yl]-benzamide]
not listed: Csk | Src | Flt1 | Frk | Brk | Plk1 | MAP4K4 | Kit | Gsk3β
≤ 10 µM: all other assays above

CCCS(=O)(=O)Nc1ccc(Cl)c(C(=O)c2c[nH]c3ncc(Br)cc23)c1F [Compound P-0805, Propane-1-sulfonic acid [3-(5-bromo-1H-pyrrolo[2,3-b]pyridine-3-carbonyl)-4-chloro-2-fluoro-phenyl]-amide]
≤ 10 µM: Csk | Fms | Src | B-Raf V600E | Flt1 | Frk | B-Raf | Brk | c-Raf-1 | FGFR1

O=C(c1c(F)ccc(NS(=O)(=O)c2ccccc2)c1F)c1c[nH]c2nccc(Cl)c12 [Compound P-0954, N-[3-(4-Chloro-1H-pyrrolo[2,3-b]pyridine-3-carbonyl)-2,4-difluoro-phenyl]-benzenesulfonamide]
≤ 10 µM: Fms | B-Raf V600E | Plk1 | TEC | MAP4K4 | B-Raf | c-Raf-1 | FGFR1 | Kit

O=C(Nc1ccc(F)c(C(=O)c2c[nH]c3ncc(-c4cccnc4)cc23)c1F)NC1CCCC1 [Compound P-1317, 1-Cyclopentyl-3-[2,4-difluoro-3-(5-pyridin-3-yl-1H-pyrrolo[2,3-b]pyridine-3-carbonyl)-phenyl]-urea]
not listed: Ret | Met | Zap70 | Jnk2 | Csk | Frk | Brk | Plk1
≤ 10 µM: all other assays above
